Reference: patent US8012956B2, “Tropane compounds” (Exelixis, Inc., priority 2007, dated 2011)

Each compound was assayed against HSP90 (Homo sapiens, UniProt P07900) (assay: HSP90 inhibition (HSP90 IC50)).
Assay type: biochemical

Row | Compound | IC50 [nM]
1 | CC[C@@H](C)Nc1cc(C(=O)NC2CC3CCC(C2)N3c2ccc(C(=O)C3CC3)cn2)c(OC)cc1C(N)=O (stereo partly drawn) [N-{8-[5-(cyclopropylcarbonyl)pyridin-2-yl]-8-azabicyclo[3.2.1]oct-3-endo-yl}-2-(methyloxy)-5-{[(1R)-1-methylpropyl]amino}benzene-1,4-dicarboxamide] | < 500
2 | CCc1cc(C(N)=O)c(N[C@H](C)CC)cc1C(=O)NC1CC2CCC(C1)N2c1ccc(C(=O)C2CC2)cn1 (stereo partly drawn) [N-{8-[5-(cyclopropylcarbonyl)pyridin-2-yl]-8-azabicyclo[3.2.1]oct-3-endo-yl}-2-ethyl-5-{[(1R)-1-methylpropyl]amino}benzene-1,4-dicarboxamide] | < 500
3 | COc1cc(C(=O)N[C@H]2C[C@H]3CC[C@@H](C2)N3c2ccc(C(=O)C3CC3)cn2)c(C)cc1C(N)=O [N-{8-[5-(cyclopropylcarbonyl)pyridin-2-yl]-8-azabicyclo[3.2.1]oct-3-endo-yl}-2-methyl-5-(methyloxy)benzene-1,4-dicarboxamide] | < 500
4 | CCCNc1cc(C(=O)N[C@H]2C[C@H]3CC[C@@H](C2)N3c2ccc(C(=O)C3CC3)cn2)c(C)cc1C(N)=O [N-{8-[5-(cyclopropylcarbonyl)pyridin-2-yl]-8-azabicyclo[3.2.1]oct-3-endo-yl}-2-methyl-5-(propylamino)benzene-1,4-dicarboxamide] | < 500
5 | Cc1cc(C(N)=O)c(NC(C)C)cc1C(=O)N[C@H]1C[C@H]2CC[C@@H](C1)N2c1ccc(C(=O)C2CC2)cn1 [N-{8-[5-(cyclopropylcarbonyl)pyridin-2-yl]-8-azabicyclo[3.2.1]oct-3-endo-yl}-2-methyl-5-[(1-methylethyl)amino]benzene-1,4-dicarboxamide] | < 500
6 | Cc1cc(C(N)=O)c(NC(C)CC(F)(F)F)cc1C(=O)N[C@H]1C[C@H]2CC[C@@H](C1)N2c1ccc(C(=O)C2CC2)cn1 (stereo partly drawn) [N-{8-[5-(cyclopropylcarbonyl)pyridin-2-yl]-8-azabicyclo[3.2.1]oct-3-endo-yl}-2-methyl-5-[(3,3,3-trifluoro-1-methylpropyl)amino]benzene-1,4-dicarboxamide] | < 500
7 | Cc1cc(C(N)=O)c(NCCC(F)(F)F)cc1C(=O)N[C@H]1C[C@H]2CC[C@@H](C1)N2c1ccc(C(=O)C2CC2)cn1 [N-{8-[5-(cyclopropylcarbonyl)pyridin-2-yl]-8-azabicyclo[3.2.1]oct-3-endo-yl}-2-methyl-5-[(3,3,3-trifluoropropyl)amino]benzene-1,4-dicarboxamide] | < 500
8 | Cc1cc(C(N)=O)c(N[C@H]2CCOC2)cc1C(=O)NC1CC2CCC(C1)N2c1ccc(C(=O)C2CC2)cn1 (stereo partly drawn) [N-{8-[5-(cyclopropylcarbonyl)pyridin-2-yl]-8-azabicyclo[3.2.1]oct-3-endo-yl}-2-methyl-5-[(3S)-tetrahydrofuran-3-ylamino]benzene-1,4-dicarboxamide] | < 500
9 | Cc1cc(C(N)=O)c(NC(C)C2(C)CC2)cc1C(=O)N[C@H]1C[C@H]2CC[C@@H](C1)N2c1ccc(C(=O)C2CC2)cn1 (stereo partly drawn) [N-{8-[5-(cyclopropylcarbonyl)pyridin-2-yl]-8-azabicyclo[3.2.1]oct-3-endo-yl}-2-methyl-5-{[1-(1-methylcyclopropyl)ethyl]amino}benzene-1,4-dicarboxamide] | < 500
10 | COCCOc1cc(C(=O)N[C@H]2C[C@H]3CC[C@@H](C2)N3c2ccc(C(=O)C3CC3)cn2)c(C)cc1C(N)=O [N-{8-[5-(cyclopropylcarbonyl)pyridin-2-yl]-8-azabicyclo[3.2.1]oct-3-endo-yl}-2-methyl-5-{[2-(methyloxy)ethyl]oxy}benzene-1,4-dicarboxamide] | 500 to 999
11 | Cc1cc(C(N)=O)c(NC(C(C)C)C(C)C)cc1C(=O)N[C@H]1C[C@H]2CC[C@@H](C1)N2c1ccc(C(=O)C2CC2)cn1 [N-{8-[5-(cyclopropylcarbonyl)pyridin-2-yl]-8-azabicyclo[3.2.1]oct-3-endo-yl}-2-methyl-5-{[2-methyl-1-(1-methylethyl)propyl]amino}benzene-1,4-dicarboxamide] | < 500
12 | Cc1cc(C(N)=O)c(NC(C(C)C)C(F)(F)F)cc1C(=O)N[C@H]1C[C@H]2CC[C@@H](C1)N2c1ccc(C(=O)C2CC2)cn1 (stereo partly drawn) [N-{8-[5-(cyclopropylcarbonyl)pyridin-2-yl]-8-azabicyclo[3.2.1]oct-3-endo-yl}-2-methyl-5-{[2-methyl-1-(trifluoromethyl)propyl]amino}benzene-1,4-dicarboxamide] | < 500
13 | Cc1cc(C(N)=O)c(N[C@H](C)C(C)(C)C)cc1C(=O)NC1CC2CCC(C1)N2c1ccc(C(=O)C2CC2)cn1 (stereo partly drawn) [N-{8-[5-(cyclopropylcarbonyl)pyridin-2-yl]-8-azabicyclo[3.2.1]oct-3-endo-yl}-2-methyl-5-{[(1R)-1,2,2-trimethylpropyl]amino}benzene-1,4-dicarboxamide] | < 500
14 | CC[C@@H](C)Nc1cc(C(=O)NC2CC3CCC(C2)N3c2ccc(C(=O)C3CC3)cn2)c(C)cc1C(N)=O (stereo partly drawn) [N-{8-[5-(cyclopropylcarbonyl)pyridin-2-yl]-8-azabicyclo[3.2.1]oct-3-endo-yl}-2-methyl-5-{[(1R)-1-methylpropyl]amino}benzene-1,4-dicarboxamide] | < 500
15 | Cc1cc(C(N)=O)c(NC(C)(C)C)cc1C(=O)N[C@H]1C[C@H]2CC[C@@H](C1)N2c1ccc(C(=O)C2CC2)cn1 [N-{8-[5-(cyclopropylcarbonyl)pyridin-2-yl]-8-azabicyclo[3.2.1]oct-3-endo-yl}-5-[(1,1-dimethylethyl)amino]-2-methylbenzene-1,4-dicarboxamide] | < 500
16 | CCC(Nc1cc(C(=O)N[C@H]2C[C@H]3CC[C@@H](C2)N3c2ccc(C(=O)C3CC3)cn2)c(C)cc1C(N)=O)C(C)C (stereo partly drawn) [N-{8-[5-(cyclopropylcarbonyl)pyridin-2-yl]-8-azabicyclo[3.2.1]oct-3-endo-yl}-5-[(1-ethyl-2-methylpropyl)amino]-2-methylbenzene-1,4-dicarboxamide] | < 500
17 | CCC(CC)Nc1cc(C(=O)N[C@H]2C[C@H]3CC[C@@H](C2)N3c2ccc(C(=O)C3CC3)cn2)c(F)cc1C(N)=O [N-{8-[5-(cyclopropylcarbonyl)pyridin-2-yl]-8-azabicyclo[3.2.1]oct-3-endo-yl}-5-[(1-ethylpropyl)amino]-2-fluorobenzene-1,4-dicarboxamide] | < 500
18 | Cc1cc(C(N)=O)c(NC(C)C(F)F)cc1C(=O)N[C@H]1C[C@H]2CC[C@@H](C1)N2c1ccc(C(=O)C2CC2)cn1 (stereo partly drawn) [N-{8-[5-(cyclopropylcarbonyl)pyridin-2-yl]-8-azabicyclo[3.2.1]oct-3-endo-yl}-5-[(2,2-difluoro-1-methylethyl)amino]-2-methylbenzene-1,4-dicarboxamide] | < 500
19 | Cc1cc(C(N)=O)c(NC(C2CC2)C2CC2)cc1C(=O)NC1CC2CCC(C1)N2c1ccc(C(=O)C2CC2)cn1 (stereo not drawn) [N-{8-[5-(cyclopropylcarbonyl)pyridin-2-yl]-8-azabicyclo[3.2.1]oct-3-endo-yl}-5-[(dicyclopropylmethyl)amino]-2-methylbenzene-1,4-dicarboxamide] | < 500
20 | CCc1cc(C(=O)N[C@H]2C[C@H]3CC[C@@H](C2)N3c2ccc(C(=O)C3CC3)cn2)c(C)cc1C(N)=O [N-{8-[5-(cyclopropylcarbonyl)pyridin-2-yl]-8-azabicyclo[3.2.1]oct-3-endo-yl}-5-ethyl-2-methylbenzene-1,4-dicarboxamide] | < 500
21 | Cc1cc(C(N)=O)c(NC(CF)CF)cc1C(=O)N[C@H]1C[C@H]2CC[C@@H](C1)N2c1ccc(C(=O)C2CC2)cn1 [N-{8-[5-(cyclopropylcarbonyl)pyridin-2-yl]-8-azabicyclo[3.2.1]oct-3-endo-yl}-5-{[2-fluoro-1-(fluoromethyl)ethyl]amino}-2-methylbenzene-1,4-dicarboxamide] | < 500
22 | Cc1cc(C(N)=O)c(N[C@H](C)C(C)C)cc1C(=O)NC1CC2CCC(C1)N2c1ccc(C(=O)C2CC2)cn1 (stereo partly drawn) [N-{8-[5-(cyclopropylcarbonyl)pyridin-2-yl]-8-azabicyclo[3.2.1]oct-3-endo-yl}-5-{[(1R)-1,2-dimethylpropyl]amino}-2-methylbenzene-1,4-dicarboxamide] | < 500
23 | CC[C@@H](C)Nc1cc(C(=O)NC2CC3CCC(C2)N3c2ccc(C(=O)C3CC3)cn2)c(C(F)(F)F)cc1C(N)=O (stereo partly drawn) [N-{8-[5-(cyclopropylcarbonyl)pyridin-2-yl]-8-azabicyclo[3.2.1]oct-3-endo-yl}-5-{[(1R)-1-methylpropyl]amino}-2-(trifluoromethyl)benzene-1,4-dicarboxamide] | < 500
24 | NC(=O)c1ccc(C(=O)N[C@H]2C[C@H]3CC[C@@H](C2)N3c2ccc(C(=O)C3CC3)cn2)s1 [N-{8-[5-(cyclopropylcarbonyl)pyridin-2-yl]-8-azabicyclo[3.2.1]oct-3-endo-yl}thiophene-2.5-dicarboxamide] | 1000 to 2000
25 | Cc1cc(C(N)=O)c(NCC(C)C)cc1C(=O)N[C@H]1C[C@H]2CC[C@@H](C1)N2c1ccc(C(=O)C2CC2)cn1 [N-{8-[5-(cyclopropylcarbonyl)pyridine-2-yl]-8-azabicyclo[3.2.1]oct-3-endo-yl}-2-methyl-5-[(2-methylpropyl)amino]benzene-1,4-dicarboxamide] | < 500
26 | CCC(Nc1cc(C(=O)N[C@H]2C[C@H]3CC[C@@H](C2)N3c2ccc(C(=O)C3CC3)cn2)c(C)cc1C(N)=O)C(F)(F)F (stereo partly drawn) [N-{8-[5-(cyclopropylcarbonyl)pyridine-2-yl]-8-azabicyclo[3.2.1]oct-3-endo-yl}-2-methyl-5-{[1-(trifluoromethyl)propyl]amino}benzene-1,4-dicarboxamide] | < 500
27 | CC[C@H](C)Nc1cc(C(=O)NC2CC3CCC(C2)N3c2ccc(C(=O)C3CC3)cn2)c(C)cc1C(N)=O (stereo partly drawn) [N-{8-[5-(cyclopropylcarbonyl)pyridine-2-yl]-8-azabicyclo[3.2.1]oct-3-endo-yl}-2-methyl-5-{[(1S)-1-methylpropyl]amino}benzene-1,4-dicarboxamide] | < 500
28 | CCC(CC)Nc1cc(C(=O)N[C@H]2C[C@H]3CC[C@@H](C2)N3c2ccc(C(=O)C3CC3)cn2)c(C(F)(F)F)cc1C(N)=O [N-{8-[5-(cyclopropylcarbonyl)pyridine-2-yl]-8-azabicyclo[3.2.1]oct-3-endo-yl}-5-[(1-ethylpropyl)amino]-2-(trifluoromethyl)benzene-1,4-dicarboxamide] | < 500
